Test results as given in ChEMBL document CHEMBL1201862, “PubChem BioAssay data set” (2004).
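1) Cells in 96-well plates. 2) Compound, 48 h, 5 concentrations. 3) Linear interpolation between surrounding doses. 4) Unreached endpoint = highest concentration. At the GI50, growth is halved.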 Activity calls are given as the source filed them. Cut-off read from the data, not from the text of the source: active = GI50 up to about 1.1 µM and inactive = higher.

Experiments:
Experiment in all cases: inhibition of tumour cell growth, NCI panel, 48 h
[1] = tested on: SNB-75
[2] = tested on: SN12C
[3] = tested on: OVCAR-3
[4] = tested on: OVCAR-4
[5] = tested on: HCT-15
[6] = tested on: HL-60
[7] = tested on: EKVX
[8] = tested on: CCRF-CEM
[9] = tested on: SK-MEL-28
[10] = tested on: OVCAR-8
[11] = tested on: HT-29
[12] = tested on: UACC-62
[13] = tested on: COLO 205
[14] = tested on: SF-539
[15] = tested on: SW-620
[16] = tested on: HCT-116
[17] = tested on: DLD-1
[18] = tested on: HOP-92
[19] = tested on: MOLT-4
[20] = tested on: RPMI-8226
[21] = tested on: M14
[22] = tested on: SK-MEL-5
[23] = tested on: SNB-78
[24] = tested on: SF-295
[25] = tested on: LXFL 529
[26] = tested on: NCI-H522
[27] = tested on: NCI-H226
[28] = tested on: DMS-114
[29] = tested on: M19-MEL
[30] = tested on: 786-0
[31] = tested on: TK-10
[32] = tested on: DMS-273
[33] = tested on: ACHN
[34] = tested on: K562
[35] = tested on: SK-MEL-2
[36] = tested on: UO-31
[37] = tested on: SNB-19
[38] = tested on: KM12
[39] = tested on: HCC 2998
[40] = tested on: NCI-H23
[41] = tested on: RXF 631
[42] = tested on: SK-OV-3
[43] = tested on: A549
[44] = tested on: KM-20L2
[45] = tested on: LOX IMVI
[46] = tested on: IGROV-1
[47] = tested on: U-251
[48] = tested on: HOP-18
[49] = tested on: HOP-62
[50] = tested on: DU-145
[51] = tested on: RXF 393
[52] = tested on: NCI-H460
[53] = tested on: CAKI-1
[54] = tested on: PC-3
[55] = tested on: A498
[56] = tested on: SF-268
[57] = tested on: BT-549
[58] = tested on: MCF7
[59] = tested on: Malme-3M
[60] = tested on: NCI/ADR-RES
[61] = tested on: MDA-MB-435
[62] = tested on: MDA-MB-231
[63] = tested on: OVCAR-5
[64] = tested on: UACC-257
[65] = tested on: MDA-N

SMILES: c1ccc(-c2csc3ncn4cnnc4c23)cc1
- GI50 [1]: 22.3 µM (inactive)
- GI50 [2]: 81.7 µM (inactive)
- GI50 [3]: > 100 µM (inactive)
- GI50 [4]: 75.5 µM (inactive)
- GI50 [5]: 95.3 µM
- GI50 [6]: 86.1 µM (inactive)
- GI50 [7]: > 100 µM (inactive)
- GI50 [8]: 85.9 µM (inactive)
- GI50 [9]: > 100 µM (inactive)
- GI50 [10]: > 100 µM (inactive)
- GI50 [11]: > 100 µM (inactive)
- GI50 [12]: 53.3 µM (inactive)
- GI50 [13]: > 100 µM (inactive)
- GI50 [14]: > 100 µM (inactive)
- GI50 [15]: > 100 µM (inactive)
- GI50 [16]: 91.4 µM (inactive)
- GI50 [17]: 82.2 µM (inactive)
- GI50 [18]: 24.6 µM (inactive)
- GI50 [19]: 44.1 µM (inactive)
- GI50 [20]: 59.6 µM (inactive)
- GI50 [21]: > 100 µM (inactive)
- GI50 [22]: 58.1 µM (inactive)
- GI50 [23]: > 100 µM (inactive)
- GI50 [24]: > 100 µM (inactive)
- GI50 [25]: 92.9 µM (inactive)
- GI50 [26]: 51.1 µM (inactive)
- GI50 [27]: 54.1 µM (inactive)
- GI50 [28]: 57.9 µM (inactive)
- GI50 [29]: > 100 µM (inactive)
- GI50 [30]: 55.7 µM (inactive)
- GI50 [31]: 84.3 µM (inactive)
- GI50 [32]: 72.8 µM (inactive)
- GI50 [33]: 33.6 µM (inactive)
- GI50 [34]: > 100 µM (inactive)
- GI50 [35]: 24.8 µM (inactive)
- GI50 [36]: 48.3 µM (inactive)
- GI50 [37]: > 100 µM (inactive)
- GI50 [38]: > 100 µM (inactive)
- GI50 [39]: > 100 µM (inactive)
- GI50 [40]: 90.2 µM (inactive)
- GI50 [41]: 95.7 µM (inactive)
- GI50 [42]: > 100 µM (inactive)
- GI50 [43]: > 100 µM (inactive)
- GI50 [44]: > 100 µM (inactive)
- GI50 [45]: 55.8 µM (inactive)
- GI50 [46]: 77.8 µM (inactive)
- GI50 [47]: > 100 µM (inactive)
- GI50 [48]: 52 µM (inactive)

SMILES: O=C1C=C(c2c(O)ccc3ccccc23)c2ccccc2C1=O
- GI50 [49]: 13 µM (inactive)
- GI50 [1]: 3.87 µM (inactive)
- GI50 [50]: 10.9 µM (inactive)
- GI50 [2]: 2.58 µM (inactive)
- GI50 [51]: 2.06 µM (inactive)
- GI50 [3]: 2.32 µM (inactive)
- GI50 [4]: 1.92 µM (inactive)
- GI50 [52]: 6.32 µM (inactive)
- GI50 [5]: 3.57 µM
- GI50 [53]: 7.93 µM (inactive)
- GI50 [6]: 2.65 µM (inactive)
- GI50 [7]: 3.15 µM (inactive)
- GI50 [8]: 1.86 µM (inactive)
- GI50 [9]: 9.95 µM (inactive)
- GI50 [54]: 2.12 µM (inactive)
- GI50 [10]: 1.89 µM (inactive)
- GI50 [11]: 6.97 µM (inactive)
- GI50 [12]: 2.35 µM (inactive)
- GI50 [13]: 6.76 µM (inactive)
- GI50 [55]: 8.51 µM (inactive)
- GI50 [14]: 2.09 µM (inactive)
- GI50 [15]: 2.09 µM (inactive)
- GI50 [16]: 2.15 µM (inactive)
- GI50 [17]: 3.76 µM (inactive)
- GI50 [18]: 2.22 µM (inactive)
- GI50 [19]: 1.72 µM (inactive)
- GI50 [20]: 2.35 µM (inactive)
- GI50 [21]: 4.69 µM (inactive)
- GI50 [22]: 2.51 µM (inactive)
- GI50 [56]: 6.12 µM (inactive)
- GI50 [23]: 2.26 µM (inactive)
- GI50 [24]: 4.19 µM (inactive)
- GI50 [57]: 2.48 µM (inactive)
- GI50 [25]: 1.59 µM (inactive)
- GI50 [26]: 1.61 µM (inactive)
- GI50 [27]: 9.77 µM (inactive)
- GI50 [28]: 2.04 µM (inactive)
- GI50 [29]: 1.64 µM (inactive)
- GI50 [30]: 2.15 µM (inactive)
- GI50 [31]: 12.1 µM (inactive)
- GI50 [58]: < 0.01 µM (active)
- GI50 [32]: 3.46 µM (inactive)
- GI50 [33]: 3.44 µM (inactive)
- GI50 [34]: 3.08 µM (inactive)
- GI50 [35]: 4.68 µM (inactive)
- GI50 [36]: 2.24 µM (inactive)
- GI50 [37]: 5.96 µM (inactive)
- GI50 [59]: 5.2 µM (inactive)
- GI50 [38]: 3.77 µM (inactive)
- GI50 [39]: 11.7 µM (inactive)
- GI50 [60]: 3.15 µM (inactive)
- GI50 [40]: 2.15 µM (inactive)
- GI50 [61]: 3.01 µM (inactive)
- GI50 [41]: 6.56 µM (inactive)
- GI50 [42]: 10.7 µM (inactive)
- GI50 [62]: 3.85 µM (inactive)
- GI50 [63]: 10.7 µM (inactive)
- GI50 [43]: 5.86 µM (inactive)
- GI50 [44]: 15.4 µM (inactive)
- GI50 [64]: 2.39 µM (inactive)
- GI50 [45]: 1.77 µM (inactive)
- GI50 [46]: 3.3 µM (inactive)
- GI50 [47]: 2.21 µM (inactive)
- GI50 [48]: 8.81 µM (inactive)
- GI50 [65]: 2 µM (inactive)
